One assay relates to MRSA. The experiment in a line: MIC, microtiter broth dilution. In kind it is cell-based, Staphylococcus aureus. Particulars: LB broth, 18 h. Here is the method: (§1) Antibacterial activities were performed by examining the minimal inhibitory concentrations (MICs), which was determined by a microtiter broth dilution method as previously described ([Cotsonas King and Wu, 2009]), with minor modifications. Briefly, 96-well plates (Corning) were inoculated with 100 μl of LB broth per well containing 7 × 10^5 CFU/mL bacteria, followed by adding 100 μl of LB broth containing two-fold serial dilutions of the test compounds. […] After 18 h of incubation, the MIC was determined to be the lowest concentration without visible bacterial growth. The results were the averages of at least three biological replicates.

Assay [1] relates to Staphylococcus aureus ATCC29213. The assay is described as follows: MIC, microtiter broth dilution. Type of assay: cell-based. The following applies: LB broth, 18 h. How it is done:
as §1

Assay [2] has as its system Escherichia coli ATCC25922. The experiment in a line: MIC, microtiter broth dilution. In kind it is cell-based. The following applies: LB broth, 18 h. How it is done:
as §1

Assay [3] relates to Listeria monocytogenes ATCC19117. The assay is described as follows: MIC, microtiter broth dilution. The following applies: LB broth, 18 h. Type of assay: cell-based. How it is done:
as §1

Assay [4] relates to Enterococcus faecalis ATCC29212. The experiment in a line: MIC, microtiter broth dilution. Type of assay: cell-based. The following applies: LB broth, 18 h. Here is the method: as §1
The next assay concerns Escherichia coli BAS 849. The assay is described as follows: microbe, parasite or virus in culture. Type of assay: cell-based. Particulars: LB broth, 18 h, strain with deficient outer-membrane structure. How it is done: as §1
A further assay relates to Escherichia coli DH5α. The experiment in a line: microbe, parasite or virus in culture. In kind it is cell-based. Particulars: LB broth, 18 h. Here is the method:
as §1

Assay [5] concerns Escherichia coli BL21 (DE3). The experiment in a line: microbe, parasite or virus in culture. Type of assay: cell-based. The following applies: LB broth, 18 h. How it is done: as §1
The mark [6] stands for this setting: Staphylococcus aureus, MRSA, read-out: MIC.
Setting [7] is: Staphylococcus aureus, ATCC29213, read-out: MIC.
[8] abbreviates: Listeria monocytogenes, ATCC19117, read-out: MIC.
Where [9] appears, read: Enterococcus faecalis, ATCC29212, read-out: MIC.
Where [10] appears, read: Escherichia coli, read-out: MIC.

≈ marks a conversion by molar mass, not a printed value. Like-named read-outs stand apart in the source and are kept apart here.

On to `CC1(C)S[C@@H]2[C@H](NC(=O)[C@H](N)c3ccccc3)C(=O)N2[C@H]1C(=O)O` [Amp, ampicillin], for which the MIC was determined as 1 µg/mL (≈ 2.86 µM) in the assay on MRSA (setting [6]); 1 µg/mL (≈ 2.86 µM) in assay [1] (setting [7]); 1 µg/mL (≈ 2.86 µM) in assay [2] (Escherichia coli, ATCC25922, read-out: MIC); 1 µg/mL (≈ 2.86 µM) in assay [3] (setting [8]); 0.5 µg/mL (≈ 1.43 µM) in assay [4] (setting [9]); 0.5 µg/mL (≈ 1.43 µM) with Escherichia coli BAS 849 (Escherichia coli, BAS849, read-out: MIC). For the same compound, the MIC in the assay on Escherichia coli DH5α (setting [10]) came to 2 µg/mL (≈ 5.72 µM); in assay [5] (setting [10]), 1 µg/mL (≈ 2.86 µM).

`CN(C)[C@@H]1C(O)=C(C(N)=O)C(=O)[C@@]2(O)C(O)=C3C(=O)c4c(O)cccc4[C@@](C)(O)[C@H]3C[C@@H]12` [Tet, Tetracycline]: the MIC stood at 2 µg/mL (≈ 4.5 µM) in the assay with MRSA (setting [6]), 0.5 µg/mL (≈ 1.13 µM) in assay [1] (setting [7]), 2 µg/mL (≈ 4.5 µM) in assay [3] (setting [8]) and 8 µg/mL (≈ 18 µM) in assay [4] (setting [9]).

In the case of `COc1cc(O)c2c(O)c3c(c4c2c1[C@]1(C4)C(C)=CCCC1(C)C)[C@H](O)[C@@]1(O)CC(=O)C(C(N)=O)=C(O)[C@@]1(O)C3=O` [VirA, viridicatumtoxins A], the MIC in the assay with MRSA is 1 µg/mL (≈ 1.77 µM); in assay [1], 1 µg/mL (≈ 1.77 µM); in assay [2], over 64 µg/mL; in assay [3] it was 2 µg/mL (≈ 3.54 µM); in assay [4], 2 µg/mL (≈ 3.54 µM); against Escherichia coli BAS 849, 8 µg/mL (≈ 14.1 µM). The MIC (in the assay with Escherichia coli DH5α; in assay [5]) was over 64 µg/mL each time.

Consider `COc1cc(O)c2c(O)c3c(c4c2c1C1(C4)C(C)=CCCC1(C)C)C1(O)OC12CC(=O)C(C(N)=O)=C(O)C2(O)C3=O` (stereo not shown) [VirB, viridicatumtoxins B], for which the MIC against MRSA is 1 µg/mL (≈ 1.77 µM); in assay [1], 1 µg/mL (≈ 1.77 µM); in assay [2] it was over 64 µg/mL; in assay [3], 1 µg/mL (≈ 1.77 µM); in assay [4] it was 1 µg/mL (≈ 1.77 µM); against Escherichia coli BAS 849 it was 8 µg/mL (≈ 14.2 µM). For the same compound, the MIC (in the assay on Escherichia coli DH5α; in assay [5]) was over 64 µg/mL in each case.

(Values after PMC9791066, “Investigations into the antibacterial effects and potential mechanism of gambogic acid and neogambogic acid” (Frontiers in Microbiology, 2022).)
